Assay results taken from patent US20110294735A1, “MECHANISM OF NEUROMEDIN U ACTION AND USES THEREOF” (MERCK SHARP & DOHME CORP., priority 2008, published 2011).
Where two headings read alike, the source gives them in different places. Non-standard residues stand in square brackets, D forms with d. No end group written: not given here. hArg = N=C(N)NCCCC[C@H](N)C(=O)O

How the values were obtained:
NMUR1 or NMUR2 receptors = assay: Receptor specificity: binding and activation of NMUR1 or NMUR2; type: biochemical; conditions: bind and activate
mice = conditions: cited from earlier work
[1] = system: total GLP-1 levels in plasma; assay: Plasma total GLP-1 levels in diet-induced obese mice after subcutaneous dosing; type: in vivo; conditions: for total GLP-1 levels: 10 mpk
Protocol: (§1) Animal dosing was as follows. Ad libitum fed male diet-induced obese mice were weighed and dosed subcutaneously about 30 minutes prior to the onset of the dark phase of the light cycle. Animals were either not given food or allowed food during treatment. For NMU studies, plasma was collected by cardiac sticks at two or four hours post dose. For studies with the PEGylated NMU analog, plasma was collected at multiple time points up to 18-hours post dose.
(§2) GLP-1 levels in plasma were measured using the Total GLP-1 kit from Meso Scale Discovery, Gaithersburg, Md. Glucagon levels were measured using the Metabolic Multiplex kit from Meso Scale Discovery, Gaithersburg, Md. PYY levels were measured using the PYY Luminex assay from Millipore, Billerica, Mass. The data shown reports of glucagon, PYY and GLP-1 levels as pg/mL (all values are reported as mean±SEM and data was analyzed using a two-tailed unpaired Student's t test; p values ≦0.05 were reported as significant and are denoted with an asterisk).
(§3) Diet-induced obese mice (DIO) were purchased from Taconic Farms. NMUR1 knockout (Nmur1−/−) mice were generated using standard homologous recombination techniques. U.S. Published Application No. 20080172752 discloses NMUR1 knockout mice. NMUR2 knockout (Nmur2−/−) mice were licensed from Deltagen Inc., San Mateo, Calif. and subsequently transferred to Taconic Farms. Mice were individually housed in Tecniplast cages in a conventional SPF facility. Mice were initially maintained on a regular chow diet and then early in their life were switched to a high fat diet (D12492: 60% kcal from fat; Research Diets, Inc., New Brunswick, N.J.) with ad libitum access to water in a 12-hour light/12-hour dark cycle.

PYY levels in plasma = assay: Plasma PYY levels in diet-induced obese mice after subcutaneous dosing; type: in vivo
Protocol: as §1, §2, §3

GLP-1 levels in plasma = assay: Plasma GLP-1 levels in wild-type, Nmur1-deficient and Nmur2-deficient mice; type: in vivo; conditions: four-hours post dose, absence of food (FIG. 3)
Protocol: as §2, §3
Plasma was collected from wild-type, Nmur1-deficient and Nmur2-deficient mice four-hours post dose in the absence of food.

Nmur1 knockout mice = assay: Food intake and weight gain in Nmur1 knockout mice after peripheral administration; type: in vivo; conditions: administered peripherally
[2] = system: glucagon levels in plasma; assay: Oral glucose tolerance test, plasma glucagon; type: in vivo, mice; conditions: 15 minutes after oral glucose tolerance test (FIG. 6B)
Protocol: (§4) The Oral Glucose Tolerance Test (OGTT) was performed as follows: Ad libitum fed male diet-induced obese mice were weighed and dosed subcutaneously about 30 minutes prior to the onset of the dark phase of the light cycle. Animals were not given food after dosing. The next day, approximately 18-hours after dosing, basal glucose levels were measured from animals by tail blood. Animals were then administered a glucose dose (1.5 g/kg) by oral gavage and fifteen minutes after dosing with glucose, plasma was collected to evaluate glucagon and glucose levels.
as §2
Diet-induced obese mice (DIO) were purchased from Taconic Farms. NMUR1 knockout (Nmur1−/−) mice were generated using standard homologous recombination techniques. U.S. Published Application No. 20080172752 discloses NMUR1 knockout mice. […]

plasma glucose levels = assay: Oral glucose tolerance test, plasma glucose; type: in vivo, mice; conditions: 15 minutes after oral glucose tolerance test (FIG. 6A)
Protocol: as §4, §3

In the case of “FRVDEEFQSPFASQSRGFWLFRP-(Harg)-N-CONH2 (FRVDEEFQSPFASQSRGFWLFRP[hArg]N-NH2; N-terminus assumed; SMILES CC(C)C[C@H](NC(=O)[C@H](Cc1c[nH]c2ccccc12)NC(=O)[C@H](Cc1ccccc1)NC(=O)CNC(=O)[C@H](CCCNC(=N)N)NC(=O)[C@H](CO)NC(=O)[C@H](CCC(N)=O)NC(=O)[C@H](CO)NC(=O)[C@H](C)NC(=O)[C@H](Cc1ccccc1)NC(=O)[C@@H]1CCCN1C(=O)[C@H](CO)NC(=O)[C@H](CCC(N)=O)NC(=O)[C@H](Cc1ccccc1)NC(=O)[C@H](CCC(=O)O)NC(=O)[C@H](CCC(=O)O)NC(=O)[C@H](CC(=O)O)NC(=O)[C@@H](NC(=O)[C@H](CCCNC(=N)N)NC(=O)[C@@H](N)Cc1ccccc1)C(C)C)C(=O)N[C@@H](Cc1ccccc1)C(=O)N[C@@H](CCCNC(=N)N)C(=O)N1CCC[C@H]1C(=O)N[C@@H](CCCCNC(=N)N)C(=O)N[C@@H](CC(N)=O)C(N)=O)”, the “receptor specificity (NMUR1 / NMUR2)” value (NMUR1 or NMUR2 receptors) is reported as “bispecific”.
In the case of “rat NMU-23: full length NMU, a 23-mer (NMU-23) in rats and mice (YKVNEYQGPVAPSGGFFLFRPRN; ends and bridges not checked; UniProt P12760 144-166, looked up) [reference compound]”, the “body weight, body composition, body temperature and food intake” value (mice; chronic central administration, Nmur2-/- transgenic mice) is listed as “largely unaffected” and the “body weight, body composition and food intake” value (mice; chronic peripheral administration, Nmur1-/- transgenic mice) is listed as “largely unaffected”.
In the case of “FRVDEEFQSPFASQSRGYFLFRPRN-CONH2 (FRVDEEFQSPFASQSRGYFLFRPRN-NH2) [NMU]”, the food intake (mice; acute administration, centrally or peripherally, mice) is given as “reduce”, the core body temperature (mice; acute peripheral administration, mice) is given as “dose-dependently increases” and the anorectic actions (mice; centrally administered, NMUR1-deficient (Nmur1-/-) mice) is given as “present”. The anorectic actions (mice; centrally administered, NMUR2-deficient (Nmur2-/-) mice) was “absent”, the “food intake, body weight and adiposity” value (mice; chronic administration, centrally or peripherally, mice) was “reduces” and the anorectic actions (mice; peripherally administered, Nmur1-/- mice) was “absent”. For the same substance, the anorectic actions (mice; peripherally administered, Nmur2-/- mice) was “present”, the “total GLP-1 levels” value ([1]; four-hours post dose, obese mice (FIG. 2A)) was “increased” and the “total GLP-1” value ([1]; chronic treatment 3 mpk/day subcutaneously for two weeks (FIG. 2B)) was “significant increase”. For the same substance, the “increase of PYY levels” value (PYY levels in plasma; 10 mpk, four-hours post dose, obese mice (FIG. 1A)) was “about two-fold”, the PYY levels (PYY levels in plasma; 10 mpk, four-hours post dose, obese mice (FIG. 1B)) was “increased” and the PYY levels (PYY levels in plasma; 10 mpk, two-hours post dose, obese mice (FIG. 1B)) was “increased”. For the same substance, the GLP-1 levels (GLP-1 levels in plasma; Nmur1-deficient mice) was “not”, the GLP-1 levels (GLP-1 levels in plasma; Nmur2-deficient mice) was “Increased” and the GLP-1 levels (GLP-1 levels in plasma; wild-type mice) was “Increased”.
In the case of “Ac-C2FRVDEEFQSPFASQSRGYFLFRPRN-CONH2 (Ac-C((PEG)2 40 kDa)FRVDEEFQSPFASQSRGYFLFRPRN-NH2; also: PEG size not given here) [NMU12, PEGylated NMU analog; differs from NMU9 by the source of the PEG]”, the food intake (Nmur1 knockout mice; Nmur1 knockout mice) is reported as “reduce food intake”, the weight gain (Nmur1 knockout mice; Nmur1 knockout mice) is reported as “reduce weight gain” and the “crossing the blood-brain barrier” value (Nmur1 knockout mice; inferred from effect in Nmur1 knockout mice) is reported as “able to cross the blood-brain barrier”. The glucagon levels ([2]; 0.1 mpk) was “reduced”, the glucagon levels ([2]; 1 mpk) was “reduced” and the “total GLP-1 levels” value ([1]; 18-hours post dose, absence of food (FIG. 5B)) was “increased”. The “total GLP-1 levels” value ([1]; 18-hours post dose, presence of food (FIG. 5A)) was “increased”, the plasma glucose levels (plasma glucose levels; 0.1 mpk) was “reduced” and the plasma glucose levels (plasma glucose levels; 1 mpk) was “reduced”. For the same substance, the PYY levels (PYY levels in plasma; 10 mpk, 18-hr post dose, absence of food (FIG. 4B)) was “did not increase” and the “PYY levels in plasma” value (PYY levels in plasma; 18-hours post dose, presence of food, obese mice (FIG. 4A)) was “dose-dependently increased”.
For “FRVDEEFQSPFASQSRGFWLFRA-(Harg)-N-CONH2 (FRVDEEFQSPFASQSRGFWLFRA[hArg]N-NH2; N-terminus assumed; SMILES CC(C)C[C@H](NC(=O)[C@H](Cc1c[nH]c2ccccc12)NC(=O)[C@H](Cc1ccccc1)NC(=O)CNC(=O)[C@H](CCCNC(=N)N)NC(=O)[C@H](CO)NC(=O)[C@H](CCC(N)=O)NC(=O)[C@H](CO)NC(=O)[C@H](C)NC(=O)[C@H](Cc1ccccc1)NC(=O)[C@@H]1CCCN1C(=O)[C@H](CO)NC(=O)[C@H](CCC(N)=O)NC(=O)[C@H](Cc1ccccc1)NC(=O)[C@H](CCC(=O)O)NC(=O)[C@H](CCC(=O)O)NC(=O)[C@H](CC(=O)O)NC(=O)[C@@H](NC(=O)[C@H](CCCNC(=N)N)NC(=O)[C@@H](N)Cc1ccccc1)C(C)C)C(=O)N[C@@H](Cc1ccccc1)C(=O)N[C@@H](CCCNC(=N)N)C(=O)N[C@@H](C)C(=O)N[C@@H](CCCCNC(=N)N)C(=O)N[C@@H](CC(N)=O)C(N)=O)”, the “receptor specificity (NMUR1 / NMUR2)” value (NMUR1 or NMUR2 receptors) was “bispecific”.
In the case of FALFRPRN-CONH2 (FALFRPRN-NH2), the “receptor specificity (NMUR1 / NMUR2)” value (NMUR1 or NMUR2 receptors) is reported as “bispecific”.
